“And” between values parts separate entries of the source, which are not always exact repeats. Equal entries are not always repeated. Each block holds one compound with its values, some of them ahead of it.
System: 885512-296-R-J2-PDC complex spheroid viability
Experiment: Anticancer human tumor 885512-296-R-J2-PDC patient-derived breast carcinoma cell line growth inhibition
Settings: for viability, T/C: stronger effect = lower value
Description: Multicellular complex tumor spheroid response to LSD1 Inhibitor Iadademstat in combination with a variety of drugs and investigational agents in selected tumor cell lines
The current study was undertaken to assess response to LSD1 inhibitors in combination with standard-of-care drugs and investigational agents in solid tumor complex spheroid models as well as in the K-562 leukemia. Complex spheroids include a stromal component modeled by human endothelial cells (HUVEC) and fibroblasts modeled by human mesenchymal stem cells (MSCs). The concentration ranges selected for each drug and investigational agent were based upon clinically achievable concentrations if the clinical Cmax of the agent was known.
Compounds. The drugs and investigational agents used in this study are listed on Table 1. All of the agents used, including staurosporine (NSC755774) and gemcitabine (NSC613327), were obtained from the Developmental Therapeutics Program, NCI. FDA-approved anticancer drugs are available from the NCI at http://dtp.nci.nih.gov/branches/dscb/oncology_drugset_explanation.html. Drugs and investigational agents were >95% pure by proton nuclear magnetic resonance (NMR) and liquid chromatography/mass spectrometry (LC/MS). Stock solutions were prepared at 400x in DMSO, stored at -70 degrees C, and diluted in fresh medium prior to their use. The final concentration of DMSO in cell culture wells never exceeded 0.25% (v/v). The FDA-approved anticancer drug set is available from the Developmental Therapeutics Program at https://dtp.cancer.gov/organization/dscb/obtaining/available_plates.htm. All drugs and investigational agents were tested over a range starting from a high concentration at or near the clinical Cmax and decreasing in half-log increments. If the clinical Cmax for an agent had not been determined, the highest concentration tested was 10 microM.
Cell Lines. The patient-derived cancer cell (PDC) lines: 292921-168-R-J2-PDC, K24384-001-R-PDC, and 521955-158-R2-J5-PDC pancreatic carcinomas, 556581-035-R-J1 ovarian carcinoma, 324938-238-R-J1-PDC, 855422-203-R-J1-PDC and 883617-216-R-J1-PDC urothelial bladder carcinomas, 743489-274-T-PDC renal cell carcinoma, 138582-R-J1 Merkel cell tumor, K60290-347-R-J1 and K57222-313-R-J1-PDC glioblastomas, 653999-131-R-J2-PDC, LG0703-F948-PDC, and 349418-098-R-PDC non-small cell lung carcinomas, 885512-296-R-J2-PDC, 171881-019-R-J1-PDC breast carcinomas and 186277-243-T-J2-PDC and 233499-124-R-J2-PDC colon carcinomas were obtained from the NCI Patient-Derived Models Repository (PDMR, https://pdmr.cancer.gov). The established cell lines NCI/ADR-RES (RRID:CVCL_14520 and OVCAR-5 (RRID:CVCL_1628) ovarian carcinomas, 786-O (RRID:CVCL_1051) and A498 (RRID:CVCL_A498) renal cell carcinoma, NCI-H211 (ATCC, cat. CRL-5824; RRID:CVCL_1529), NCI-H196 (ATCC, cat. CRL-5823, RRID:CVCL_1509), SW 1271 (ATCC, cat. CRL-2177, RRID:CVCL_1716) and NCI-H1876 (ATCC, cat. CRL-5902, RRID:CVCL_1503) small cell lung carcinomas, MDA-MB-231 (RRID:CVCL_0062) and MDA-MB-468 (RRID:CVCL_0419)breast carcinomas (10-12). Pooled donor human umbilical vein endothelial cells (HUVEC, Lonza, cat. CC-2519) and human mesenchymal stem cells (hMSC, Lonza, cat. PT-2501) were purchased from Lonza (Walkersville, MD).
Cell Culture. All cells were maintained in an incubator at 37 degrees C and 5% CO2 with 95% humidity. The PDC lines were cultured according to standard operating procedures established by the NCI PDMR (https://pdmr.cancer.gov). Briefly all PDCs were thawed and cultured in Matrigel-coated flasks prepared with a working solution of 1X Ham's F-12 nutrient mix, without supplementation (Invitrogen, Waltham, MA, cat. 11765054), 100 U/mL penicillin-streptomycin (Invitrogen, cat. 15140122), and 2.5% Matrigel (Corning Inc., Corning, NY, cat. 354248) for the first three passages. […]

[1] = curve of first compound, second compound 0.1 µM
[2] = curve of first compound, second compound 0.316 µM
[3] = curve of first compound, second compound 1 µM
[4] = curve of first compound, second compound 3.16 µM
[5] = curve of first compound, second compound 10 µM
[6] = second compound 0.1 µM, first compound 0.000316 µM
[7] = second compound 0.1 µM, first compound 0.001 µM
[8] = second compound 0.1 µM, first compound 0.00316 µM
[9] = second compound 0.1 µM, first compound 0.01 µM
[10] = second compound 0.1 µM, first compound 0.0316 µM
[11] = second compound 0.1 µM, first compound 0.1 µM
[12] = second compound 0.316 µM, first compound 0.000316 µM
[13] = second compound 0.316 µM, first compound 0.001 µM
[14] = second compound 0.316 µM, first compound 0.00316 µM
[15] = second compound 0.316 µM, first compound 0.01 µM
[16] = second compound 0.316 µM, first compound 0.0316 µM
[17] = second compound 0.316 µM, first compound 0.1 µM
[18] = second compound 1 µM, first compound 0.000316 µM
[19] = second compound 1 µM, first compound 0.001 µM
[20] = second compound 1 µM, first compound 0.00316 µM
[21] = second compound 1 µM, first compound 0.01 µM
[22] = second compound 1 µM, first compound 0.0316 µM
[23] = second compound 1 µM, first compound 0.1 µM
[24] = second compound 3.16 µM, first compound 0.000316 µM
[25] = second compound 3.16 µM, first compound 0.001 µM
[26] = second compound 3.16 µM, first compound 0.00316 µM
[27] = second compound 3.16 µM, first compound 0.01 µM
[28] = second compound 3.16 µM, first compound 0.0316 µM
[29] = second compound 3.16 µM, first compound 0.1 µM
[30] = second compound 10 µM, first compound 0.000316 µM
[31] = second compound 10 µM, first compound 0.001 µM
[32] = second compound 10 µM, first compound 0.00316 µM
[33] = second compound 10 µM, first compound 0.01 µM
[34] = second compound 10 µM, first compound 0.0316 µM
[35] = second compound 10 µM, first compound 0.1 µM
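Note: spheroids exposed to agents for 7 days before viability read.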

SMILES: CC(C)CC(NC(=O)C(Cc1ccccc1)NC(=O)c1cnccn1)B(O)O (configuration not stated) + NC1CCC(NC2CC2c2ccccc2)CC1
IC50 [1]: 1.3 nM
IC50 [2]: 1.34 nM
IC50 [3]: 1.38 nM
IC50 [4]: 1.33 nM
IC50 [5]: 1.09 nM
viability, T/C [6]: 149%
viability, T/C [7]: 63.9%
viability, T/C [8]: 2.42%
viability, T/C [9]: 0.24%
viability, T/C [10]: 7.32%
viability, T/C [11]: 3.74%
viability, T/C [12]: 134%
viability, T/C [13]: 65.7%
viability, T/C [14]: 2.51%
viability, T/C [15]: 0.43%
viability, T/C [16]: 7.09%
viability, T/C [17]: 3.61%
viability, T/C [18]: 152%
viability, T/C [19]: 68.4%
viability, T/C [20]: 2.46%
viability, T/C [21]: 0.35%
viability, T/C [22]: 3.66%
viability, T/C [23]: 3.45%
viability, T/C [24]: 137%
viability, T/C [25]: 66.2%
viability, T/C [26]: 1.59%
viability, T/C [27]: 0.23%
viability, T/C [28]: 0.08%
viability, T/C [29]: 0.08%
viability, T/C [30]: 138%
viability, T/C [31]: 54%
viability, T/C [32]: 1.4%
viability, T/C [33]: 0.2%
viability, T/C [34]: 0.09%
viability, T/C [35]: 0.13%

SMILES: NS(=O)(=O)OCC1CC(n2ccc3c(NC4CCc5ccccc54)ncnc32)CC1O (configuration not stated) + NC1CC1c1ccc(-c2cccc(O)c2)cc1
IC50 [1]: < 9.49 nM
IC50 [2]: < 9.49 nM
IC50 [3]: < 9.49 nM
IC50 [4]: < 9.49 nM
IC50 [5]: < 9.49 nM
viability, T/C (second compound 0.1 µM, first compound 0.00949 µM): 15.9%
viability, T/C (second compound 0.1 µM, first compound 0.03 µM): 6.61%
viability, T/C (second compound 0.1 µM, first compound 0.0949 µM): 2.38%
viability, T/C (second compound 0.1 µM, first compound 0.3 µM): 1.74%
viability, T/C (second compound 0.1 µM, first compound 0.949 µM): 1.42%
viability, T/C (second compound 0.1 µM, first compound 3 µM): 1.17%
viability, T/C (second compound 0.316 µM, first compound 0.00949 µM): 13.4%
viability, T/C (second compound 0.316 µM, first compound 0.03 µM): 5.58%
viability, T/C (second compound 0.316 µM, first compound 0.0949 µM): 2.27%
viability, T/C (second compound 0.316 µM, first compound 0.3 µM): 1.48%
viability, T/C (second compound 0.316 µM, first compound 0.949 µM): 1.54%
viability, T/C (second compound 0.316 µM, first compound 3 µM): 1.19%
viability, T/C (second compound 1 µM, first compound 0.00949 µM): 11.8%
viability, T/C (second compound 1 µM, first compound 0.03 µM): 5.8%
viability, T/C (second compound 1 µM, first compound 0.0949 µM): 2.84%
viability, T/C (second compound 1 µM, first compound 0.3 µM): 1.53%
viability, T/C (second compound 1 µM, first compound 0.949 µM): 1.65%
viability, T/C (second compound 1 µM, first compound 3 µM): 1.49%
viability, T/C (second compound 3.16 µM, first compound 0.00949 µM): 10.9%
viability, T/C (second compound 3.16 µM, first compound 0.03 µM): 4.37%
viability, T/C (second compound 3.16 µM, first compound 0.0949 µM): 2.28%
viability, T/C (second compound 3.16 µM, first compound 0.3 µM): 1.46%
viability, T/C (second compound 3.16 µM, first compound 0.949 µM): 1.66%
viability, T/C (second compound 3.16 µM, first compound 3 µM): 1.1%
viability, T/C (second compound 10 µM, first compound 0.00949 µM): 8.81%
viability, T/C (second compound 10 µM, first compound 0.03 µM): 4.76%
viability, T/C (second compound 10 µM, first compound 0.0949 µM): 1.87%
viability, T/C (second compound 10 µM, first compound 0.3 µM): 1.89%
viability, T/C (second compound 10 µM, first compound 0.949 µM): 0.97%
viability, T/C (second compound 10 µM, first compound 3 µM): 0.66%

IC50 (curve of compound): 1080 nM and 980 nM
SMILES: COc1ccc([C@@H](O)c2cc(-c3ncnc4cc(N5CCOCC5)ccc34)c(F)cc2Cl)nn1
viability, T/C (compound 0.0316 µM): 83.8% and 95.7%
viability, T/C (compound 0.1 µM): 96.8% and 82.8%
viability, T/C (compound 0.316 µM): 81.9% and 61.3%
viability, T/C (compound 1 µM): 52.8% and 50.3%
viability, T/C (compound 3.16 µM): 16.6% and 37.4%
viability, T/C (compound 10 µM): 10.3% and 9.6%

SMILES: Cn1ncnc1C1c2n[nH]c(=O)c3cc(F)cc(c23)NC1c1ccc(F)cc1 (configuration not stated) + NC1CC1c1ccc(-c2cccc(O)c2)cc1
IC50 [1]: 55.1 nM
IC50 [2]: 51 nM
IC50 [3]: 41 nM
IC50 [4]: 28.1 nM
IC50 [5]: 15.5 nM
viability, T/C [6]: 138%
viability, T/C [7]: 114%
viability, T/C [8]: 98.7%
viability, T/C [9]: 86.2%
viability, T/C [10]: 63.6%
viability, T/C [11]: 35.8%
viability, T/C [12]: 112%
viability, T/C [13]: 121%
viability, T/C [14]: 97%
viability, T/C [15]: 89.2%
viability, T/C [16]: 64.3%
viability, T/C [17]: 30.3%
viability, T/C [18]: 118%
viability, T/C [19]: 114%
viability, T/C [20]: 101%
viability, T/C [21]: 86.3%
viability, T/C [22]: 53.7%
viability, T/C [23]: 32.3%
viability, T/C [24]: 105%
viability, T/C [25]: 110%
viability, T/C [26]: 94.2%
viability, T/C [27]: 77.4%
viability, T/C [28]: 46.7%
viability, T/C [29]: 27.2%
viability, T/C [30]: 72.4%
viability, T/C [31]: 80.2%
viability, T/C [32]: 70.5%
viability, T/C [33]: 55.5%
viability, T/C [34]: 39.1%
viability, T/C [35]: 20.5%
